Here are results for 1 compound from ChEMBL document CHEMBL4190224, “Xanthohumol Blocks Proliferation and Migration of Vascular Smooth Muscle Cells in Vitro and Reduces Neointima Formation in Vivo” (J Nat Prod, 2017).

In series [1] the test system is VSMC. In words: Inhibition of PDGF-BB-induced rat VSMC proliferation preincubated for 30 mins followed by PDGF-BB addition measured after 48 hrs by resazurin assay. It is filed as functional, cell-based. (Alamar Blue is a resazurin reagent that responds to reducing activity.)
Series [2] relates to VSMC. Briefly: Cytotoxicity against rat VSMC at 1 to 15 uM after 48 hrs by LDH release assay. The series is classed as cell-based. Background: LDH leaks from cells whose membrane has failed.
In series [3] the test system is VSMC. Briefly: Antimigratory activity against PDGF-BB-stimulated rat VSMC at 15 uM preincubated for 30 mins followed by PDGF-BB addition measured after 20 hrs by scratch wound-healing assay. It is filed as functional, cell-based.
In another series the test system is Mus musculus. Briefly: Inhibition of cuff-induced restenosis in C57BL/6 mouse femoral artery cuff model assessed as reduction in neointima formation dosed via local application using compound dissolved on F-127 gel measured after 2 weeks by hematoxylin and eosin staining-based microscopic analysis. It is filed as functional, organism-based.

Active and inactive are the calls of the source. No cut-off for these calls is given here.

With `COc1cc(O)c(CC=C(C)C)c(O)c1C(=O)/C=C/c1ccc(O)cc1` [XANTHOHUMOL], the IC50 (in general, the concentration that inhibits the measured activity by half) in the series with VSMC [1] worked out at 3.49 µM. Besides, the inhibition result in the series with VSMC [1] is “Dose-dependent effect”. In the series on VSMC [2], the Activity result is reported as “Non-Toxic”. The result in the series on VSMC [3] and in the series with Mus musculus was Active.
